For this test, the system named is larvae expressing TDP-43 in motor neurons. Kind of test: Larval turning assay (locomotor function). The note with it: for locomotor function measured by larval turning assays: TDP-43 expressed in motor neurons, FIGS. 1-3; for locomotor function: Student's t-test, N>20 larvae/genotype. The test is classed as in vivo, Drosophila. How it is done:
Drosophila genetics. TDP-43 was expressed in motor neurons using the GAL4-UAS bipartite expression system. D42 GAL4 was used as an expression driver and UAS-TDP-43 YFP trasgenics were used as responder lines (Estes, et al., 2011, Hum. Mol. Genet).
Locomotor function. Locomotion was assessed using quantitative larval turning assays. Crosses were carried out at 25° C. and wandering third instar larvae were placed on a grape juice plate at room temperature. After a 30 second acclimation period, larvae were gently turned ventral side up. They were observed until they turned over (dorsal side up) and began making a forward motion. The time it took to complete this task was recorded for at least 20 larvae per genotype.
Statistical analyses. Student's t-tests were performed to determine statistical significance.

Where [1] appears, read: larvae expressing TDPG298S in motor neurons.
Setting [2] is: larvae expressing TDPWT in motor neurons.

SMILES strings stand for the structures.

In the case of `CCOC(=O)C1=CCN([S@+]([O-])C(C)(C)C)[C@@H]1C[C@@H](C)CCC=C(C)C` [CH-I-108], the “locomotor function measured by larval turning assays” value (from here on “locomotor function measured”) is given as “significant improvement of locomotor function”. Moreover, the locomotor function result under setting [1] is reported as “improves locomotor function”. In addition, the locomotor function entry under setting [2] is on record as “improves locomotor function”.
Regarding `COc1cc2c(C(=O)C(F)(F)F)c(C(F)(F)F)[nH]c2cc1F` [EV-3-298], the “locomotor function measured” value is “significant improvement of locomotor function”. The locomotor function result under setting [1] was “improves locomotor function”. Moreover, the locomotor function entry under setting [2] is listed as “improves locomotor function”.
`CCOC(=O)C1=CCN([S@@+]([O-])C(C)(C)C)[C@H]1c1ccsc1` [CH-III-31]: the “locomotor function measured” value is recorded as “significant improvement of locomotor function”. Further, under setting [1], the locomotor function result is on record as “improves locomotor function”. Under setting [2], the locomotor function result was “improves locomotor function”.

Source of the values: patent publication US11147795B2, “Neuroprotective compounds and methods of use” (ARIZONA BOARD OF REGENTS ON BEHALF OF THE UNIVERSITY OF …, priority 2014, dated 2021).
